Measured values: patent US5160483A, “Fragment of TNF-α for promoting wound healing” (The University of Tennessee Research Corporation, priority 1991, dated 1992)
Where two headings read alike, the source gives them in different places.

Columns and labels:
fibroblasts [1] = experiment: Zigmond-Hirsch checkerboard analysis of fibroblast migration in chemotaxis chamber; format: cell-based
Protocol: (§1) Solutions of varying concentrations of the fragment of TNF-α comprising amino acids 31 through 68 SEQ ID No.: 1 in phosphate buffered saline (PBS) were added to the lower compartment of chemotaxis chambers. The number of fibroblasts migrating to the lower compartment was counted. The response curve is bell-shaped, with a maximum at 100 nM. An analysis of the effects of varying concentration gradients of the protein fragment (a Zigmond-Hirsch checkerboard analysis) was performed by adding different concentrations of the fragment to the upper and/or lower compartments of a chemotaxis chamber. The number of fibroblasts migrating to the lower surface of each filter was counted.
The fibroblasts migrate from the upper chamber to the lower chamber since there is very little of the fragment in the upper chamber and there is quite a large concentration of the fragment in the lower chamber. This simulates the condition at a wound site where there has been an application of the fragment to the wound. The concentration of the fragment in the surrounding tissue will be quite low compared to the concentration at the wound site. Therefore, the fibroblasts will migrate from the area of low concentration of the fragment to the area of high concentration.

fibroblasts [2] = experiment: Chemotaxis of fibroblasts in chemotaxis chambers, fragment in lower compartment (FIG. 1); format: cell-based; settings: fragment in PBS in lower compartment of chemotaxis chambers
Protocol: as §1

[3] = tested on: fibroblasts and monocytes; experiment: Intradermal injection in guinea pigs; format: in vivo
Excerpt: The composition accomplishes this without the problems attendant on the previously developed materials. The fragment includes amino acids 31 through 68 SEQ ID No.: 1 of TNF-α which has the sequence: [drawing 1]

[4] = known property of the complete protein; cited from earlier work

fragment of TNF-α comprising amino acids 31 through 68 SEQ ID No.: 1: 38-residue synthetic polypeptide, amino acids 31 through 68 of TNF-α (SEQ ID No.: 1), about 3,800 Da (RRANALLANGVELRDNQLVVPSEGLYLIYSQVLFKGQG; Tumor necrosis factor, soluble form; UniProt P01375 107-144, looked up, fragment)
number of fibroblasts migrating to the lower surface of each filter (fibroblasts [1]; upper compartment 0 nM, lower compartment 21 nM): 31 ± 4 | number of fibroblasts migrating to the lower surface of each filter (fibroblasts [1]; upper compartment 0 nM, lower compartment 41 nM): 57 ± 3 | number of fibroblasts migrating to the lower surface of each filter (fibroblasts [1]; upper compartment 0 nM, lower compartment 164 nM): 73 ± 4 | number of fibroblasts migrating to the lower surface of each filter (fibroblasts [1]; upper compartment 0 nM, lower compartment 329 nM): 86 ± 13 | number of fibroblasts migrating to the lower surface of each filter (fibroblasts [1]; upper compartment 21 nM, lower compartment 0 nM): 20 ± 6 | number of fibroblasts migrating to the lower surface of each filter (fibroblasts [1]; upper compartment 21 nM, lower compartment 21 nM): 9 ± 1 | number of fibroblasts migrating to the lower surface of each filter (fibroblasts [1]; upper compartment 21 nM, lower compartment 41 nM): 49 ± 7 | number of fibroblasts migrating to the lower surface of each filter (fibroblasts [1]; upper compartment 21 nM, lower compartment 164 nM): 46 ± 2 | number of fibroblasts migrating to the lower surface of each filter (fibroblasts [1]; upper compartment 21 nM, lower compartment 329 nM): 67 ± 2 | number of fibroblasts migrating to the lower surface of each filter (fibroblasts [1]; upper compartment 41 nM, lower compartment 0 nM): 31 ± 2 | number of fibroblasts migrating to the lower surface of each filter (fibroblasts [1]; upper compartment 41 nM, lower compartment 21 nM): 28 ± 5 | number of fibroblasts migrating to the lower surface of each filter (fibroblasts [1]; upper compartment 41 nM, lower compartment 41 nM): 26 ± 4 | number of fibroblasts migrating to the lower surface of each filter (fibroblasts [1]; upper compartment 41 nM, lower compartment 164 nM): 47 ± 5 | number of fibroblasts migrating to the lower surface of each filter (fibroblasts [1]; upper compartment 41 nM, lower compartment 329 nM): 57 ± 6 | number of fibroblasts migrating to the lower surface of each filter (fibroblasts [1]; upper compartment 164 nM, lower compartment 0 nM): 14 ± 2 | number of fibroblasts migrating to the lower surface of each filter (fibroblasts [1]; upper compartment 164 nM, lower compartment 21 nM): 11 ± 1 | number of fibroblasts migrating to the lower surface of each filter (fibroblasts [1]; upper compartment 164 nM, lower compartment 41 nM): 16 ± 3 | number of fibroblasts migrating to the lower surface of each filter (fibroblasts [1]; upper compartment 164 nM, lower compartment 164 nM): 22 ± 4 | number of fibroblasts migrating to the lower surface of each filter (fibroblasts [1]; upper compartment 164 nM, lower compartment 329 nM): 43 ± 3 | number of fibroblasts migrating to the lower surface of each filter (fibroblasts [1]; upper compartment 329 nM, lower compartment 0 nM): 16 ± 3 | number of fibroblasts migrating to the lower surface of each filter (fibroblasts [1]; upper compartment 329 nM, lower compartment 21 nM): 10 ± 1 | number of fibroblasts migrating to the lower surface of each filter (fibroblasts [1]; upper compartment 329 nM, lower compartment 41 nM): 9 ± 1 | number of fibroblasts migrating to the lower surface of each filter (fibroblasts [1]; upper compartment 329 nM, lower compartment 164 nM): 12 ± 2 | number of fibroblasts migrating to the lower surface of each filter (fibroblasts [1]; upper compartment 329 nM, lower compartment 329 nM): 8 ± 1 | type of fibroblast migration induced (checkerboard analysis) (fibroblasts [1]; varying concentration gradients, Table I): induced mostly chemotactic migration of fibroblasts | cytotoxicity (Cytotoxicity): without any showing of cytotoxicity | concentration at the maximum of the bell-shaped fibroblast migration response curve (fibroblasts [2]): 100 nM | amount of connective tissue at the injection site [3]: increase in the amount of connective tissue at the injection site | migration of fibroblasts and monocytes into the area of the wound [3]: increased migration of fibroblasts and monocytes into the area of the wound

TNF-α
cytotoxicity [4]: known to be a cytotoxin
